Reference: publication PMC11557573, “Aspergillus flavipes L-methionine γ-lyase-β-cyclodextrin conjugates with improved stability, catalytic efficiency and anticancer activity” (Scientific Reports, 2024)

Tested on: T1, A. flavipes L-methionine γ-lyase (MGL), free MGL
T1 construct: native intracellular enzyme purified from A. flavipes mycelium (acetone, Sephadex G100, DEAE-Sepharose); 48 kDa subunit; PLP enzyme; free (not cyclodextrin-conjugated)
Assay: released thiol/ammonia assay (DTNB), Lineweaver-Burk
Format: biochemical, Aspergillus flavipes
Conditions: free enzyme; standard assay Tris-HCl pH 7.8, 10 μM PLP, 37 °C
Description: released thiol/ammonia assay (DTNB), Lineweaver-Burk on A. flavipes L-methionine γ-lyase (MGL), free MGL

Km [mM] | Compound
12.2 | NC(CCS)C(=O)O (racemic) [DL-homocysteine]
7.2 | CSCC[C@H](N)C(=O)O [L-methionine]

Compound | Km [mM]
N[C@@H](CS)C(=O)O [L-cysteine] | 9.5
